Data on one sequence can be found in patent US7354904B2, “Bacteriocin inducer peptides” (priority 2005, dated 2008).

The nature of data set [1]: Isoelectric point by isoelectrofocusing. Type of data set: physicochemical. The source says:
FIGS. 1A and 1B are photographs showing the direct detection of signal peptide and bacteriocin OR-7 after SDS-PAGE (A) and isoelectrofocusing (B). […] In FIG. 1A Lane 1-Molecular Mass Markers LMW Range 2,100-12,500 (Amersham Pharmacia Biotech): 2,100; 5,780; 8,400; 12,500 Da. […] Lane 3 contained pI standards (Protein Test Mixture, I Marker Proteins, Serva): 10.0, 9.2, 8.1, 6.9, 5.5, 4.3.
FIGS. 2A and 2B are photographs showing direct detection of signal peptide and bacteriocin 50-52 after SDS-PAGE (A) and isoelectrofocusing (B). […] Lane 3 contained pI standards (Protein Test Mixture, I Marker Proteins, Serva): 10.0, 8.1, 7.9, 6.4, 5.5, 4.3, 4.1, and 3.8.
FIGS. 3A and 3B are photographs showing the direct detection of signal peptide and bacteriocin 760 after SDS-PAGE(A) and isoelectrofocusing (B). […] Lane 3 contained pI standards (Protein Test Mixture, I Marker Proteins, Serva): 10.0, 8.1, 7.9, 6.4, 5.5, 4.3, 4.1, and 3.8.
At the end of 14 hours the supernatant from the cultures was placed into 500 ml centrifuge flasks with about one milliliter of regenerated Sepharose SP Fast Flow (v/v 500: 1). This was incubated for approximately 1 hour at room temperature with stirring. The suspension was then washed with about 100 ml of a 0.2 M TRIS-HCl buffer pH approximately 6.4. The bacteriocins were eluted by centrifugation with about 100 ml of approximately 0.2 M K2HPO4, pH of about 5.8 at about 7,000×g for approximately 10 minutes. Antagonistic activity of the bacteriocin fractions against C. jejuni and S. enteritidis was assessed using a Spot Test as described above. The level of purity of the bacteriocin fractions was determined by SDS-PAGE. The isoelectric points of the fractions were determined by isoelectric focusing. Concentrations of protein for all bacteriocin fractions were determined at 215 nm using a spectrophotometer.

Data set [2] concerns Enterococcus faecium LWP 50-52. Put plainly: Influence of signal peptide on bacteriocin 50-52 production, flask culture (fraction protein at 215 nm, activity by spot-test against C. jejuni and S. enteritidis). The format is cell-based.
For the next data set, the system named is C. jejuni. Put plainly: Spot Test, antagonistic activity of isolated signal peptides. The format is cell-based, Campylobacter jejuni. Particulars: isolated signal peptide. How it is done:
(§1) The antagonistic activity of the bacteriocins produced when using the signal peptide and an inducer strain of bacteria against C. jejuni and S. enteritidis was assessed using a Spot Test. The steps included taking various concentrations of pure preparation (μg/ml) of the bacteriocin in approximately 10 microliters of volume plated onto blood-supplemented Campylobacter agar or Nutrient agar (MPA or Meta Peptone Agar) previously seeded with cells of target bacteria. Plates containing cultures of C. jejuni were grown at about 42° C., under microaerobic conditions. Plates containing S. enteritidis were grown at about 37° C. under aerobic conditions. Activity of the bacteriocin was expressed in arbitrary units (AU) per one milliliter of the preparation at which a visible zone of inhibition of the growth of culture appears (Henderson et al., Archives of Biochemistry and Biophysics, Volume 295, 5-12, 1992; herein incorporated by reference). Specific activity can also expressed as arbitrary units per milligram of pure bacteriocin.
(§2) Its activity was about 200 AU/ml and its molecular weight was about 2.5 kDa, as determined by SDS-PAGE electrophoresis. The isoelectric point (pI) was about 7.9 (FIGS. 1A and 1B).
(§3) Its molecular weight was about 3.1 kDa as measured by SDS-PAGE and the isoelectric point (pI) was about 8.1 (FIGS. 2A and 2B).
(§4) Its molecular weight was about 2.1 kDa as determined by SDS-PAGE electrophoresis and its isoelectric point was about 8.9 (FIGS. 3A and 3B).

For another data set, the system named is S. enteritidis. The description is as above. Type of data set: cell-based. Particulars: isolated signal peptide. The procedure:
as §1, §2, §3, §4

The mark [3] stands for this setting: LWP 50-52 + LWP 320, LWP 760 peptide 0.1 mg/ml.

On to “WNKYKTNWVLSVCNTGCACAAVKGLT (listed as Streptococcus cricetus) [LWP 760 Signal Peptide, signal peptide isolated from Streptococcus cricetus LWP 760, stimulates bacteriocin 760 production]”, for which, in data set [1], the “isoelectric point (pI)” value was “about 8.9”. Also, in data set [2] (setting [3]), the Activity was 819,200 AU/ml, the “Protein Concentration” value is 0.25 mg/mL, the “Protein increase vs. Control” value was 1 and the “Specific Activity” value is given as 3,276,800 AU/mg. Further, the mg protein/liter in data set [2] (setting [3]) amounted to 82.5 mg protein/liter. The “yield of bacteriocin 50-52 versus the control” value in data set [2] (signal peptide of another strain added to LWP 50-52 + LWP 320) is “did not increase”. For the same sequence, the antagonistic activity entry in the data set on C. jejuni is given as “did not possess antagonistic activity”. In addition, in the data set with S. enteritidis, the antagonistic activity entry is “did not possess antagonistic activity”.
